Reference: article PMC5078989, “Targeted inhibition of the COP9 signalosome for treatment of cancer” (Nature Communications, 2016)

Test system: panel of cancer cell lines
Assay: Cell viability (CellTiter-Glo) dose-response across cancer cell line panel;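 also: after 72 h compound incubation with CellTiter-Glo ATP readout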
Type: cell-based, human
Conditions: Homo sapiens
From the text: Next, we explored the effect of CSN5 inhibition on the viability of cancer cells. To obtain a comprehensive picture, we generated dose–response curves with a CSN5 inhibitor across more than 500 cancer cell lines in a previously described standardized setting[47] (Supplementary Data 1).
A standardized CellTiter-Glo Assay (Promega #G7570) based on the quantification of ATP was applied according to the manufacturer's protocol to measure the amount of viable cells in culture. In brief, cells were seeded into 384-well plates at optimal density for each cell line. After 4 h, compounds were added at different concentrations in growth medium and incubated for another 72 h in a humidifying chamber at 37 °C and 5% CO2. […] EC50 values were calculated from the plot of percentage of inhibition versus inhibitor concentration using the nonlinear regression analysis software Origin 7.5SR6 (OriginLab Corp.).

EC50 (MOLT-16, MOLT-16): 134 nM
EC50 (MSTO-211H): 366 nM
EC50 (MV4-11, MV-4-11): 74.8 nM
EC50 (Malme-3M): 521 nM
EC50 (MeWo): 279 nM
EC50 (Mono-Mac-1, MONO-MAC-1): 233 nM
EC50 (NALM-6, NALM-6): 432 nM
EC50 (NB1, NB-1): 213 nM
EC50 (NB-4, NB-4): 60.9 nM
EC50 (NCI-H23, NCI-H23): 532 nM
EC50 (NCI-H28, NCI-H28): 10800 nM
EC50 (NCI-H82, NCI-H82): 89.6 nM
EC50 (NCI-H146, NCI-H146): 240 nM
EC50 (NCI-H211, NCI-H211): 2840 nM
EC50 (NCI-H322, NCI-H322): 767 nM
EC50 (NCI-H460, NCI-H460): 1460 nM
EC50 (NCI-H520, NCI-H520): 4070 nM
EC50 (NCI-H647, NCI-H647): 3220 nM
EC50 (NCI-H650, NCI-H650): 424 nM
EC50 (NCI-H661, NCI-H661): 174 nM
EC50 (NCI-H747, NCI-H747): 2320 nM
EC50 (NCI-H810, NCI-H810): 26.5 nM
EC50 (NCI-H838, NCI-H838): 259 nM
EC50 (NCI-H841, NCI-H841): 204 nM
EC50 (NCI-H1048, NCI-H1048): 79.9 nM
EC50 (NCI-H1299, NCI-H1299): 460 nM
EC50 (NCI-H1339, NCI-H1339): 67 nM
EC50 (NCI-H1341): 86.4 nM
EC50 (NCI-H1355, NCI-H1355): 700 nM
EC50 (NCI-H1373, NCI-H1373): 655 nM
EC50 (NCI-H1437, NCI-H1437): 2820 nM
EC50 (NCI-H1568, NCI-H1568): 680 nM
EC50 (NCI-H1581, NCI-H1581): 296 nM
EC50 (NCI-H1650, NCI-H1650): 5840 nM
EC50 (NCI-H1666, NCI-H1666): 2270 nM
EC50 (NCI-H1693, NCI-H1693): 541 nM
EC50 (NCI-H1703, NCI-H1703): 32.1 nM
EC50 (NCI-H1755, NCI-H1755): 3310 nM
EC50 (NCI-H1792, NCI-H1792): 7900 nM
EC50 (NCI-H1915, NCI-H1915): 1160 nM
EC50 (NCI-H1975, NCI-H1975): 2710 nM
EC50 (NCI-H2023, NCI-H2023): 376 nM
EC50 (NCI-H2030, NCI-H2030): 402 nM
EC50 (NCI-H2073, NCI-H2073): 399 nM
EC50 (NCI-H2087, NCI-H2087): 493 nM
EC50 (NCI-H2110, NCI-H2110): 238 nM
EC50 (NCI-H2122, NCI-H2122): 335 nM
EC50 (NCI-H2126, NCI-H2126): 15200 nM
EC50 (NCI-H2170, NCI-H2170): 335 nM
EC50 (NCI-H2172, NCI-H2172): 10700 nM
EC50 (NCI-H2228, NCI-H2228): 1330 nM
EC50 (NCI-H2286, NCI-H2286): 119 nM
EC50 (NCI-H2444, NCI-H2444): 413 nM
EC50 (NCI-H2452, NCI-H2452): 1810 nM
EC50 (NCI-H3255, NCI-H3255): > 30000 nM
EC50 (NCI-N87, NCI-N87): 2980 nM
EC50 (NO36): 873 nM
EC50 (NOMO-1, NOMO-1): 137 nM
EC50 (NUGC-3, NUGC-3): 929 nM
EC50 (OCI-AML-3, OCI-AML3): 93.3 nM
EC50 (OCI-AML-5, OCI-AML5): 240 nM
EC50 (OCI-Ly3, OCI-LY3): 112 nM
EC50 (OCI-M1, OCI-M1): 34.3 nM
EC50 (OUMS-23, OUMS-23): 970 nM
EC50 (OV56, OV56): 387 nM
EC50 (OVCAR-3, NIH:OVCAR-3): 304 nM
EC50 (OVCAR-4, OVCAR-4): 789 nM
EC50 (OVISE): 791 nM
EC50 (P3HR-1, P3HR-1): 283 nM
EC50 (P12-Ichikawa): 208 nM
EC50 (P31-FUJ, P31/FUJ): 285 nM
EC50 (PANC-1, PANC-1): 3930 nM
EC50 (PANC-03-27, Panc 03.27): 401 nM
EC50 (PC-3, PC-3): 570 nM
EC50 (PC-14, PC-14): 884 nM
EC50 (PE/CA-PJ34 (clone C12)): 86.1 nM
EC50 (PE/CA-PJ49): 297 nM
EC50 (PF-382, PF-382): 216 nM
EC50 (PK-1, PK-1): 1370 nM
EC50 (PK-45H): 1610 nM
EC50 (PK-59, PK-59): 2030 nM
EC50 (PL45, PL45): 305 nM
EC50 (PL-21, PL-21): 136 nM
EC50 (PLC-PRF-5, PLC/PRF/5): 3760 nM
EC50 (PSN1, PSN1): 1190 nM
EC50 (PaTu 8902, PA-TU-8902): 898 nM
EC50 (PaTu 8988s, PA-TU-8988S): 12200 nM
EC50 (PaTu 8988t, PA-TU-8988T): 888 nM
EC50 (Panc 02.03, Panc 02.03): 3430 nM
EC50 (Panc 04.03, Panc 04.03): 245 nM
EC50 (Panc1005, Panc 10.05): 368 nM
EC50 (RCM-1, RCM-1): 8840 nM
EC50 (RD): 722 nM
EC50 (RD-ES): 162 nM
EC50 (RERF-LC-AI): 437 nM
EC50 (RERF-LC-MS): 719 nM
EC50 (RKN): 342 nM
EC50 (RKO): 163 nM
EC50 (RMUG-S): 4130 nM
EC50 (RPMI 8402, RPMI-8402): 92 nM
EC50 (RPMI-7951, RPMI-7951): 1020 nM
EC50 (RT-112, RT-112): 851 nM
EC50 (RVH-421, RVH-421): 727 nM
EC50 (Rh41, RH-41): 32.4 nM
EC50 (SCC-25, SCC-25): 561 nM
EC50 (SCaBER): 3560 nM
EC50 (SEM): 487 nM
EC50 (SF8657): > 30000 nM
EC50 (SF-268, SF-268): 472 nM
EC50 (SH-4, SH-4): 147 nM
EC50 (SH-10-TC): 19100 nM
EC50 (SH-SY5Y): 561 nM
EC50 (SJRH30, SJRH30): 72.9 nM
EC50 (SK-CO-1, SK-CO-1): 258 nM
EC50 (SK-ES1, SK-ES-1): 177 nM
EC50 (SK-HEP1, SK-HEP-1): 384 nM
EC50 (SK-LU-1, SK-LU-1): 915 nM
EC50 (SK-MEL3, SK-MEL-3): 722 nM
EC50 (SK-MEL-2, SK-MEL-2): 370 nM
EC50 (SK-MEL-5, SK-MEL-5): 552 nM
EC50 (SK-MEL-28, SK-MEL-28): 603 nM
EC50 (SK-MEL-30, SK-MEL-30): 418 nM
EC50 (SK-MES-1, SK-MES-1): 725 nM
EC50 (SK-N-SH): 1140 nM
EC50 (SK-OV-3, SK-OV-3): 1440 nM
EC50 (SKM-1, SKM-1): 85.6 nM
EC50 (SKNBE2, SK-N-BE(2)): 334 nM
EC50 (SNB-19, SNB-19): 626 nM
EC50 (SNG-M): 249 nM
EC50 (SNU668, SNU-668): 1520 nM
EC50 (SNU878, SNU-878): 746 nM
EC50 (SNU-8): 552 nM
EC50 (SNU-16, SNU-16): 272 nM
EC50 (SNU-61): 19000 nM
EC50 (SNU-81): 175 nM
EC50 (SNU-175): 317 nM
EC50 (SNU-213): 2080 nM
EC50 (SNU-324): 685 nM
EC50 (SNU-349): 319 nM
EC50 (SNU-387, SNU-387): 3860 nM
EC50 (SNU-398, SNU-398): 294 nM
EC50 (SNU-410): 351 nM
EC50 (SNU-423, SNU-423): 620 nM
EC50 (SNU-449, SNU-449): 3540 nM
EC50 (SNU-475, SNU-475): 2310 nM
Compound: NS(=O)(=O)OC[C@@H]1C[C@@H](n2ccc3c(N[C@H]4CCc5ccccc54)ncnc32)C[C@@H]1O [MLN4924]
